The results in this text go back to patent US7732434B2, “Macrocyclic acyl guanidines as beta-secretase inhibitors” (Bristol-Myers Squibb Company, priority 2007, dated 2010).

The structures appear in SMILES notation.

By IC50 is commonly meant the concentration that gives 50% inhibition.

Tested on in the first data set: not given
Test: not given
The note with it: from C=CCCCCN(CC(=O)Nc1c(Cl)cc(CN/C(=N/C(=O)c2c(-c3ccc(OCC=C)cc3)noc2C)NC(=O)OC(C)(C)C)cc1Cl)C(=O)OC(C)(C)C; rcm bond; Grubbs Catalyst 2nd Generation; 1,2-dichloroethane; 3.71 mM; 45.0 °C; 2.0 h.
As to `Cc1onc2c1C(=O)N=C(NC(=O)OC(C)(C)C)NCc1cc(Cl)c(c(Cl)c1)NC(=O)CN(C(=O)OC(C)(C)C)CCCCC=CCOc1ccc-2cc1` (mixture of isomers), the ring closure, yield of all isomers turned out to be 64.9%.

The same data set, now with this note: from C=CCCCN(CC(=O)Nc1c(Cl)cc(CN/C(=N/C(=O)c2c(-c3ccc(OCC=C)cc3)noc2C)NC(=O)OC(C)(C)C)cc1Cl)C(=O)OC(C)(C)C; rcm bond; Grubbs Catalyst 2nd Generation; 1,2-dichloroethane; 3.94 mM; 40.0 °C; 2.0 h.
In turn, `Cc1onc2c1C(=O)N=C(NC(=O)OC(C)(C)C)NCc1cc(Cl)c(c(Cl)c1)NC(=O)CN(C(=O)OC(C)(C)C)CCCC=CCOc1ccc-2cc1` displayed a ring closure, yield of all isomers of 69.9%.

Still in this data set, the particulars now being: from C=CCCCN(CC(=O)Nc1c(Cl)cc(CN/C(=N/C(=O)c2c(-c3ccc(OCC=C)cc3)nsc2C)NC(=O)OC(C)(C)C)cc1Cl)C(=O)OC(C)(C)C; rcm bond; Grubbs Catalyst 1st Generation; 1,2-dichloroethane; 3.04 mM; 70.0 °C; 6.0 h.
With `Cc1snc2c1C(=O)N=C(NC(=O)OC(C)(C)C)NCc1cc(Cl)c(c(Cl)c1)NC(=O)CN(C(=O)OC(C)(C)C)CCCC=CCOc1ccc-2cc1`, the ring closure, yield of all isomers was found to be 68%.

Still in this data set, the particulars now being: from C=CCOc1ccc(-c2noc(C)c2C(=O)/N=C(/NCc2cc(Cl)c(NC(=O)CN(CC=C)C(=O)OC(C)(C)C)c(Cl)c2)NC(=O)OC(C)(C)C)cc1; rcm bond; Grubbs Catalyst 2nd Generation; 1,2-dichloroethane; 5.84 mM; 45.0 °C; 2.0 h.
`Cc1onc2c1C(=O)N=C(NC(=O)OC(C)(C)C)NCc1cc(Cl)c(c(Cl)c1)NC(=O)CN(C(=O)OC(C)(C)C)CC=CCOc1ccc-2cc1`: the ring closure, yield of all isomers worked out at 53%.

In a further data set the target is T1, BACE1 enzyme (Homo sapiens, UniProt P56817).
T1 construct: The HEK293-9B.A1 cell line, which overexpresses the BACE1 enzyme, was derived from HEK293 cells; endogenous in cells; washed 48,000 x g pellet of cell homogenate
T1 sequence (P56817 46-501): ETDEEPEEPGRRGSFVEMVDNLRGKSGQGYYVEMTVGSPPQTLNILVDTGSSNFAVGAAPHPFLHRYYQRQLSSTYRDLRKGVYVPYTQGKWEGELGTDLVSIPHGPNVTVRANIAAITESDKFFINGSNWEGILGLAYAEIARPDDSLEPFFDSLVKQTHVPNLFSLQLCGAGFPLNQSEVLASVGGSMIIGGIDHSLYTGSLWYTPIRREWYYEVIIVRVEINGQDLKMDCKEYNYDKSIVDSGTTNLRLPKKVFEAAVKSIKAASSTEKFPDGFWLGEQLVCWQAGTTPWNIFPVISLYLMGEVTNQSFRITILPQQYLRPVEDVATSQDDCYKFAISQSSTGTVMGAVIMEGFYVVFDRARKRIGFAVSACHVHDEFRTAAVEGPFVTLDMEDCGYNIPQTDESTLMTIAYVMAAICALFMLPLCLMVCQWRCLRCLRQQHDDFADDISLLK
The data set can be described thus: Radioligand displacement assay with a radiolabeled BACE inhibitor, HEK293-9B.A1 cell homogenate. Type of data set: binding. The note with it: displacement of 1 nM radioligand, HEK293-9B.A1 homogenate, pH 5.0, 1.5 hr at 25° C.; read-out: Activity Rating (activity based on IC50 values). The procedure:
Radioligand displacement assays with a radiolabeled BACE inhibitor (WO 2004 013098, compound 3, where the methoxy group is substituted for C(^3H)3) were carried out using standard methods (Keen, M. (1999) in Receptor Binding Techniques (Walker, J. M. ed) p. 106Humana Press, Totowa, N.J.). The HEK293-9B.A1 cell line, which overexpresses the BACE1 enzyme, was derived from HEK293 cells (Simmons, N. L. (1990) A cultured human renal epithelioid cell line responsive to vasoactive intestinal peptide. Exp. Physiol. 75:309-19.) by RAGE™ (Harrington, J. J. et al. (2001) Creation of genome-wide protein expression libraries using random activation of gene expression. Nat. Biotechnol. 19:440-5.; U.S. Pat. Nos. 6,410,266 and 6,361,972). T225 flask cultures of HEK293-9B.A1 were grown to 80% confluency in DMEM supplemented with 2 mM L-glutamine, 10 μg/ml penicillin, 10 μg/ml streptomycin, 3 μg/ml puromycin, 100 nM methotrexate, and 10% fetal bovine serum (Invitrogen, Carlsbad, Calif.), harvested, and resuspended at 2×10^8 cells per 10 ml of lysis buffer consisting of 50 mM HEPES pH 7.0 containing a protease inhibitor cocktail of AEBSF 104 μM, aprotinin 80 nM, leupeptin 2 μM, bestatin 4 μM, pepstatin A 1.5 μM, and E-64 1.4 μM (0.1% of protease inhibitor cocktail P8340, Sigma-Aldrich, St. Louis, Mo.) at 4° C. The resuspended cells were homogenized using a Polytron (Brinkman, Westbury, N.Y.) at setting 6 for 10 sec., then centrifuged at 48,000×g for 10 min. The resulting pellet was washed by repeating the resuspension, homogenization and centrifugation steps. The final pellet was resuspended in buffer at 4° C. to yield a total protein concentration of 5 mg/ml, then aliquots were frozen in liquid nitrogen for further storage at −70° C. Immediately before carrying out a binding assay, an aliquot of cell homogenate was thawed and diluted to a concentration of 100 μg/ml in assay buffer consisting of 50 mM HEPES pH 5.0 and 0.1% CHAPSO. Assays were initiated in polypropylene 96-well plates (Costar, Cambridge, Mass.) by the addition of 200 μl of cell homogenate to 50 μl of assay buffer containing 1 nM radioligand (WO 2004 013098, compound 3, where the methoxy group is substituted for C(^3H)3: 80 Ci/mMol) and various concentrations of unlabelled compounds, and incubated for 1.5 hr. at 25° C. Separation of bound from free radioligand was by filtration on GFF glass fiber filters (Innotech Biosystems International, Lansing, Mich.) using an Innotech cell harvester. Filters were washed three times with 0.3 ml of phosphate buffered saline pH 7.0 at 4° C. and assessed for radioactivity using a Wallac 1450 Microbeta liquid scintillation counter (PerkinElmer, Boston, Mass.). Ki values of competing compounds were derived through Cheng-Prussoff correction of IC50 values calculated using XLfit (IDBS, Guildford, UK).
For orientation: Loss of bound radioactivity is the signal in a displacement assay; it reports binding, not function.
Turning to `Cc1onc2c1C(=O)N=C(N)NCc1ccc(c(Cl)c1)NC(=O)CNCCC/C=C\COc1ccc-2cc1` [Example 11, (23Z)-9-Amino-14-chloro-5-methyl-4,26-dioxa-3,8,10,16,19-pentaazatetracyclo-[25.2.2.2^12,5.0^2,6]tritriaconta-1(29),2,5,8,12,14,23,27,30,32-decaene-7,17-dione], the IC50 is less than 5 nM. With `Cc1snc2c1C(=O)/N=C(\N)NCc1cc(Cl)c(c(Cl)c1)NC(=O)CNCCCCCOc1ccc-2cc1` [Example 9, 9-Amino-14,31-dichloro-5-methyl-25-oxa-4-thia-3,8,10,16,19-pentaazatetracyclo[24.2.2.2^12,15.0^2,6]dotriaconta-1(28),2,5,8,12,14,26,29,31-nonaene-7,17-dione], the IC50 is less than 5 nM.

As to `Cc1snc2c1C(=O)/N=C(\N)NCc1cc(Cl)c(c(Cl)c1)NC(=O)CNCCCCCCOc1ccc-2cc1` [Example 5, 9-Amino-14,32-dichloro-5-methyl-26-oxa-4-thia-3,8,10,16,19-pentaazatetracyclo[25.2.2.2^12,15.0^2,6]tritriaconta-1(29),2,5,8,12,14,27,30,32-nonaene-7,17-dione], the 50% inhibitory concentration (IC50) was in the range of 5 to 50 nM. `Cc1onc2c1C(=O)/N=C(\N)NCc1cc(Cl)c(c(Cl)c1)NC(=O)CNCC/C=C/COc1ccc-2cc1` [Example 2, (22E)-9-Amino-14,31-dichloro-5-methyl-4,25-dioxa-3,8,10,16,19-pentaazatetracyclo[24.2.2.2^12,15.0^2,6]dotriaconta-1(28),2,5,8,12,14,22,26,29,31-decaene-7,17-dione]: the IC50 is greater than 50 nM.

For the compound `Cc1onc2c1C(=O)/N=C(\N)NCc1cc(Cl)c(c(Cl)c1)NC(=O)CNCC=CCOc1ccc-2cc1` [Example 1, 9-Amino-14,30-dichloro-5-methyl-4,24-dioxa-3,8,10,16,19-pentaazatetracyclo-[23.2.2.2^12,15.0^2,6]hentriaconta-1(27),2,5,8,12,14,21,25,28,30-decaene-7,17-dione], the 50% inhibitory concentration (IC50) is greater than 50 nM.

For the compound `Cc1onc2c1C(=O)/N=C(\N)NCc1cc(Cl)c(c(Cl)c1)NC(=O)CNCCCC/C=C\COc1ccc-2cc1` [Example 7, (24Z)-9-Amino-14,33-dichloro-5-methyl-4,27-dioxa-3,8,10,16,19-pentaazatetracyclo[26.2.2.2^12,15.0^2,6]tetratriaconta-1(30),2,5,8,12,14,24,28,31,33-decaene-7,17-dione], the IC50 is less than 5 nM. The same measure, in the same setting: the same measure for `Cc1onc2c1C(=O)/N=C(\N)NCc1cc(Cl)c(c(Cl)c1)NC(=O)CNCCC/C=C\COc1ccc-2cc1` [Example 3, 9-Amino-14,32-dichloro-5-methyl-4,26-dioxa-3,8,10,16,19-pentaazatetracyclo-[25.2.2.2^12,15.0^2,6]tritriaconta-1(29),2,5,8,12,14,23,27,30,32-decaene-7,17-dione]: 5 to 50 nM; for `Cc1snc2c1C(=O)/N=C(\N)NCc1cc(Cl)c(c(Cl)c1)NC(=O)CNCC/C=C\COc1ccc-2cc1` [Example 8, (22Z)-9-Amino-14,31-dichloro-5-methyl-25-oxa-4-thia-3,8,10,16,19-pentaazatetracyclo[24.2.2.2^12,15.0^2,6]dotriaconta-1(28),2,5,8,12,14,22,26,29,31-decaene-7,17-dione]: less than 5 nM; for `Cc1onc2c1C(=O)/N=C(\N)NCc1ccc(cc1)NC(=O)CNCCC/C=C\COc1ccc-2cc1` [Example 10, (23Z)-9-Amino-5-methyl-4,26-dioxa-3,8,10,16,19-pentaazatetracyclo-[25.2.2.2^12,15.0^2,6]tritriaconta-1(29),2,5,8,12,14,23,27,30,32-decaene-7,17-dione]: less than 5 nM.

As for `Cc1snc2c1C(=O)/N=C(\N)NCc1cc(Cl)c(c(Cl)c1)NC(=O)CN(Cc1ccccc1)CCCC=CCOc1ccc-2cc1` [Example 6, 9-Amino-19-benzyl-14,32-dichloro-5-methyl-26-oxa-4-thia-3,8,10,16,19-pentaazatetracyclo[25.2.2.2^12,15.0^2,6]tritriaconta-1(29),2,5,8,12,14,23,27,30,32-decaene-7,17-dione], the IC50 fell in the range of 5 to 50 nM.

With `Cc1snc2c1C(=O)/N=C(\N)NCc1cc(Cl)c(c(Cl)c1)NC(=O)CNCCCC=CCOc1ccc-2cc1` [Example 4, 9-Amino-14,32-dichloro-5-methyl-26-oxa-4-thia-3,8,10,16,19-pentaazatetracyclo[25.2.2.2^12,15.0^2,6]tritriaconta-1(29),2,5,8,12,14,23,27,30,32-decaene-7,17-dione], the concentration for half-maximal inhibition (IC50) is 5 to 50 nM.
